Experimental data: ChEMBL document CHEMBL5244212, “Recent advances in the rational design and development of LIM kinase inhibitors are not enough to enter clinical trials” (Eur J Med Chem, 2018)
Each block holds one compound with its values, some of them ahead of it.

What was measured:
[1] = species: Homo sapiens; assay: Selectivity index, ratio of IC50 for ROCK2 (unknown origin) to IC50 for PKA (unknown origin)
[2] = biological target: cAMP-dependent protein kinase (PKA) (Homo sapiens) (UniProt P22694+P17612+P22612); assay: Inhibition of PKA (unknown origin) assessed as fold increase; assay type: protein assay
[3] = biological target: T1, LIM domain kinase 2 (Homo sapiens, UniProt P53671); assay: Inhibition of LIMK2 (unknown origin) in presence of ATP at 200 uM
[4] = system: PANC-1; assay: Anti-tumor activity against human PANC-1 cells xenografted in athymic nude mouse assessed as reduction in tumor growth at 100 mg/kg, ip measured after 35 days relative to control; assay type: functional; design: scale not given: the % may be the effect or the level left; settings: time 35 day
[5] = system: PANC-1; assay: Cytotoxicity against human PANC-1 cells assessed as reduction in cell growth relative to control; assay type: functional; design: scale not given: the % may be the effect or the level left
[6] = biological target: T1, LIM domain kinase 2; assay: Inhibition of human recombinant LIMK2
[7] = biological target: T2, LIM domain kinase 1 (Homo sapiens, UniProt P53667); assay: Inhibition of human recombinant LIMK1
Target sequence in this assay (P53667 whole entry, the tested form may be a part): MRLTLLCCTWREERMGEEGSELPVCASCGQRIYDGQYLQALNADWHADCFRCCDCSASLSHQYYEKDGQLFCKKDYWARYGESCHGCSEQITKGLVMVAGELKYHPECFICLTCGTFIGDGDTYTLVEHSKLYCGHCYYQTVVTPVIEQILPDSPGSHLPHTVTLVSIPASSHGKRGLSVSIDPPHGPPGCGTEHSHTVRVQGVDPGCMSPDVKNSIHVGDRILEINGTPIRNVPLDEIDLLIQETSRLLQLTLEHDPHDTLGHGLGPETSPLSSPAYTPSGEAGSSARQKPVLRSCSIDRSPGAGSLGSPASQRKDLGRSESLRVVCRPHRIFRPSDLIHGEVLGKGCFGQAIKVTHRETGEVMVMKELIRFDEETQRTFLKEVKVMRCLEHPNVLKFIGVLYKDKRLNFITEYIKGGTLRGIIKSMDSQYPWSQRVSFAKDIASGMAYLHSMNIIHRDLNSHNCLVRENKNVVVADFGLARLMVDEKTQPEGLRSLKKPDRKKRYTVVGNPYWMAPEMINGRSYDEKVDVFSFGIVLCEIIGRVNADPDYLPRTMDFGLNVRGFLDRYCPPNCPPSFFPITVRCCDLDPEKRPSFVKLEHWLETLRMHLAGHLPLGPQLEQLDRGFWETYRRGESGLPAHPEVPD

[8] = biological target: T2, LIM domain kinase 1; assay: Inhibition of LIMK1 (unknown origin) phosphorylation of cofilin
Target sequence in this assay (P53667 whole entry, the tested form may be a part): as above

[9] = biological target: T2, LIM domain kinase 1; assay: Inhibition of human LIMK1 (321 to 647 residues) expressed in Sf9 cells using […] as substrate incubated for 30 mins by micro-scintillation fluid method
Target sequence in this assay (P53667 whole entry, the tested form may be a part): as above

[10] = biological target: T2, LIM domain kinase 1; assay: Inhibition of human LIMK1 (312 to 638 residues) expressed in Sf9 cells using […] as substrate incubated for 30 mins by micro-scintillation fluid method
Target sequence in this assay (P53667 whole entry, looked up, the tested form may be a part): as the sequence (P53667 whole entry, the tested form may be a part) above

[11] = biological target: T1, LIM domain kinase 2; assay: Inhibition of LIMK2 (unknown origin)
[12] = system: MDA-MB-231; assay: Cytotoxicity against human MDA-MB-231 cells assessed as reduction in cell viability incubated for 96 hrs at 3 uM by MTT method relative to control; assay type: functional
[13] = species: Mus musculus; assay: Antiglaucoma activity in ocular […] mouse assessed as reduction in intraocular pressure at 15 ug measured after 4 hrs; assay type: functional; settings: dose 15 µg
[14] = biological target: T2, LIM domain kinase 1; assay: Inhibition of LIMK1 (unknown origin)
Target sequence in this assay (P53667 whole entry, the tested form may be a part): as above

[15] = cells; settings: Mus musculus, NF-1
Description: Cytotoxicity against mouse NF-1 cells assessed as reduction in cell growth

[16] = Inhibition of AbI (unknown origin); design: species or system Homo sapiens
[17] = biological target: T1, LIM domain kinase 2; assay: Inhibition of LIMK2 (unknown origin) in presence of ATP at 25 uM
[18] = biological target: Rho-associated protein kinase 2 (Homo sapiens, UniProt O75116); assay: Inhibition of human recombinant ROCK2 by ADP glo kinase assay
[19] = Half life in rat, iv at 1 mg/kg; assay type: ADME, organism-based; settings: in vivo
[20] = system: Human immunodeficiency virus; assay: Antiviral activity against HIV at 100 uM relative to control; assay type: functional
[21] = system: Human immunodeficiency virus; assay: Antiviral activity against HIV at 1 uM relative to control; assay type: functional
[22] = system: Human immunodeficiency virus; assay: Antiviral activity against HIV at 10 uM relative to control; assay type: functional

T1 sequence (P53671 whole entry, the tested form may be a part): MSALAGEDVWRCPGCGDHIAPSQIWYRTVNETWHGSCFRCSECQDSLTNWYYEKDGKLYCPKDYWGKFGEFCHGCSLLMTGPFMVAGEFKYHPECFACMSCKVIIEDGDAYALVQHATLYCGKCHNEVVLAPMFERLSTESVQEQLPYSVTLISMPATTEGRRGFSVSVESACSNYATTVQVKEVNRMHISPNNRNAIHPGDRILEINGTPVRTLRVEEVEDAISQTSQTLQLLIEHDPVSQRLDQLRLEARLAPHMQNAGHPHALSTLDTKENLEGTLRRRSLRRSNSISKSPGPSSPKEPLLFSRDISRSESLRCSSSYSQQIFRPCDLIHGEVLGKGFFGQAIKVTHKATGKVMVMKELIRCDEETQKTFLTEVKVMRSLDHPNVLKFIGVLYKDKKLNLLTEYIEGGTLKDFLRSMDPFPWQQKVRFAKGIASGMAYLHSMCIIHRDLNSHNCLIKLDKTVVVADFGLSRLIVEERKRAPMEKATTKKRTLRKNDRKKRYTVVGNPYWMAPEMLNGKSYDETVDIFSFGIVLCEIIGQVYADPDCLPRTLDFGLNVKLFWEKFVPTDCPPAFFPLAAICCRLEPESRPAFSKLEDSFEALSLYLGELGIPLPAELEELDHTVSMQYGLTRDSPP
Sequence of Rho-associated protein kinase 2 (O75116 whole entry): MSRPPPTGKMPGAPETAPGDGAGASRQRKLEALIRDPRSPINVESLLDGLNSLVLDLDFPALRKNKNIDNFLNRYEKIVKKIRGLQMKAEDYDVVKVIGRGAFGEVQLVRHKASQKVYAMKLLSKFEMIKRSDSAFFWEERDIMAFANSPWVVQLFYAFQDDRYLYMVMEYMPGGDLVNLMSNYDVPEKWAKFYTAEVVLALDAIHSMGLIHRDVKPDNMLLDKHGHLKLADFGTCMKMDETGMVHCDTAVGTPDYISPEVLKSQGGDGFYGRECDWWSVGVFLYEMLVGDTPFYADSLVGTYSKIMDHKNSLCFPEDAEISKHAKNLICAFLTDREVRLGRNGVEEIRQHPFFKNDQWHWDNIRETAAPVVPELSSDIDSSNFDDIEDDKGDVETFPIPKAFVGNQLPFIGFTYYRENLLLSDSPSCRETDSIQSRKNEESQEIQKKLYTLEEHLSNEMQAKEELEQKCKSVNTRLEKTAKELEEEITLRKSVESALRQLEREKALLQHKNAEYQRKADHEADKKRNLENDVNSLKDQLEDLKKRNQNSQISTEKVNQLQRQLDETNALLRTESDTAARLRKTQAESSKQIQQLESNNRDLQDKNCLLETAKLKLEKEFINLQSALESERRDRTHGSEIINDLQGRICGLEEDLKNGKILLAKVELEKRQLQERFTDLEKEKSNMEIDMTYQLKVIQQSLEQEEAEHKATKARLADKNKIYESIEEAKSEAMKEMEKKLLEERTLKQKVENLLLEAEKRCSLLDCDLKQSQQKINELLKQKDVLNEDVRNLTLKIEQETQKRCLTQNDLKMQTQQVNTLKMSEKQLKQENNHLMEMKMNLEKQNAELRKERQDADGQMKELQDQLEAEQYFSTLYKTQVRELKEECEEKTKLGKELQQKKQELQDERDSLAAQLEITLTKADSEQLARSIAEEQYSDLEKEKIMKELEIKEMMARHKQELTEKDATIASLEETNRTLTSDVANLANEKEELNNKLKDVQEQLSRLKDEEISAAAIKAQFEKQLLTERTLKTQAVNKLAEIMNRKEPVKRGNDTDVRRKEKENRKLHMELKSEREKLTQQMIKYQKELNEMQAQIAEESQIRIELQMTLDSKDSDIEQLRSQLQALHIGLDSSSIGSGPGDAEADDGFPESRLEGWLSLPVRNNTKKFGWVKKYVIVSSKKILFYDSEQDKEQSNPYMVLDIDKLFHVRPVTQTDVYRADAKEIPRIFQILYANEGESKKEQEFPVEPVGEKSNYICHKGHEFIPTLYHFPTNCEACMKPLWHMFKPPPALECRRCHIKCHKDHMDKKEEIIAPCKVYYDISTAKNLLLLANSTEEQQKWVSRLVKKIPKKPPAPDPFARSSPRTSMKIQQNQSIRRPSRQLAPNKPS

SMILES: CN(C)C(=O)Oc1cccc(NC(=O)C2(CN)CCN(c3ncnc4[nH]c5c(c34)CCCC5)CC2)c1
Selectivity Index [1]: 1
fold change (FC) [2]: 0.7

IC50 [3]: < 0.1 nM
SMILES: COC(=O)Cc1cccc(NC(=O)C2(CN)CCN(c3ncnc4[nH]c5c(c34)CC(F)CC5)CC2)c1 (configuration not stated)

SMILES: Cc1cc(C(=O)Nc2cccc(C(=O)Nc3cccc(C(F)(F)F)c3)c2)on1
Activity [4]: 80%
Activity [5]: 46%

IC50 [6]: 75 nM
IC50 [7]: 50 nM
SMILES: Cc1c2cc[nH]c(=O)c2c(C)c2c1[nH]c1ccc(OC(=O)c3ccccc3)cc12

IC50 [8]: 8 nM
SMILES: COCCN(C(=O)Nc1ccc(-c2ncnc3[nH]c(C)c(C)c23)c(F)c1)c1ccc(Cl)cc1

IC50 [9]: 5 nM
IC50 [10]: 6 nM
SMILES: O=C(Nc1ncc(-c2cc(C(F)F)nn2-c2c(Cl)cccc2Cl)s1)C1CC1

IC50 [11]: 0.1 nM
SMILES: CN(C)C1(C(=O)Nc2cccc(-c3ccccc3)c2)CCN(c2ncnc3[nH]c4c(c23)CCCC4)CC1

SMILES: Cc1ccc(-c2cnccc2-c2cnc(Nc3ccc(O)cc3)s2)c(Cl)c1
Activity [12]: 96%

SMILES: O=C(CC1CCCN1)Nc1ncc(-c2cc(C(F)F)nn2-c2c(Cl)cccc2Cl)s1 (configuration not stated)
Activity [13]: 5 mmHg

SMILES: Cc1[nH]c2ncnc(N3CCC(CN)(C(=O)Nc4cccc(OC(=O)N(C)C)c4)CC3)c2c1C
IC50 [14]: 23 nM

SMILES: Cc1c[nH]c2ncnc(N3CCN(C(=O)Nc4cccc(OC(=O)N(C)C)c4)[C@@H](C)C3)c12
Activity [13]: 3 mmHg

EC50 [15]: 30000 nM
SMILES: CC(C)C(=O)Nc1ncc(-c2cc(C(F)F)nn2-c2c(Cl)cccc2Cl)s1

SMILES: COc1cc(-c2nn(C3CCC(N4CCN(C)CC4)CC3)c3ncnc(N)c23)ccc1NC(=O)OCc1ccccc1 (configuration not stated)
IC50 [14]: 900 nM
IC50 [11]: 800 nM

IC50 [16]: 6 nM
SMILES: CN(Cc1ccccc1)C(=O)c1ccc(S(=O)(=O)Nc2ccccc2)cc1

SMILES: CC(C)CNc1ncc(-c2ccncc2-c2ccccc2Cl)s1
Activity [12]: 70%

SMILES: Cc1c[nH]c2ncnc(N3CCC(C(=O)Nc4cccc(OC(=O)N(C)C)c4)C(C)C3)c12 (configuration not stated)
IC50 [17]: 210 nM

IC50 [18]: 18 nM
SMILES: Cc1c[nH]c2ncnc(-c3ccc(NC(=O)Nc4cccc(C(=O)NC(C)C)c4)cc3F)c12

SMILES: Cc1c[nH]c2ncnc(N3CCC(C(=O)Nc4cccc(OC(=O)N(C)C)c4)[C@@H](C)C3)c12 (some centres not stated)
IC50 [17]: 110 nM

half-life [19]: 6 h
SMILES: Cc1c[nH]c2ncnc(-c3ccc(NC(=O)N(CCN(C)C)c4ccc(Cl)cc4)cc3)c12

SMILES: COC(=O)c1ccc2[nH]c(C3CCN(c4ncnc5[nH]cc(Cl)c45)CC3)nc2c1
Activity [20]: 80%
Activity [21]: 50%
Activity [22]: 70%
